Consider three compounds from patent publication US7309698B2, “Compositions for delivering bisphosphonates” (Emisphere Technologies, Inc., priority 2001, dated 2007).

Where “and” joins values, the source holds several entries; their conditions need not be identical. Equal values may be shown once.

The term solubility denotes how much of the substance goes into solution per volume. One may read the melting point as the temperature, or range, at which the solid turns liquid.

Data set [1] in a line: Solubility of delivery agent compound. The format is physicochemical. The conditions noted are these: 350 µl 2N NaOH + 650 µl water, aqueous buffer, thermodynamic from solid; 200 mg+350 μl 2N NaOH+650 μl H2O, pH=7.67. The procedure: The reaction mixture was warmed to 25° C. and stirred for 64 hours. The volatiles were removed in vacuo. The residue was stirred in 2N aqueous sodium hydroxide for one hour and acidified with 2M aqueous sulfuric acid. The solid was recrystallized twice from ethanol/water to give a tan solid. Isolation by filtration afforded 53.05 g of (52% yield) of 2-(4-(N-salicyloyl) aminophenyl) propionic acid. Solubility: 200 mg/mL (200 mg+350 μl 2N NaOH+650 μl H2O, pH=7.67). Anal. Calculated: C=67.36, H=5.3, N=4.91. Found: C=67.05, H=5.25, N=4.72.
A solution of 53.05 g (0.186 mol) of 2-(4-(N-salicyloyl)aminophenyl) propionic acid and 300 mL of ethanol was treated with 7.59 g (0.190 mol) of NaOH dissolved in 22 mL of water. The reaction mixture was stirred for 30 minutes at 25° C. and for 30 minutes at 0° C. The resulting pale yellow solid was isolated by filtration to give 52.61 g of sodium 2-(4-(N-salicyloyl) aminophenyl) propionate. Solubility: 200 mg/mL clear solution, pH=6.85. Anal. Calculated: C=60.45, H=5.45, N=3.92, Na=6.43. Found: C=60.84, H=5.87, N=3.85, Na=6.43. Melting point 236-238° C.

For `CC(C(=O)O)c1ccc(NC(=O)c2ccccc2O)cc1` (stereo not drawn) [Compound 4, 2-(4-(N-salicyloyl)aminophenyl)propionic acid], the solubility in data set [1] was 200 mg/mL.
For the compound `O=C(O)CCCCCCCOc1ccccc1O` [Compound 7, 8-(2-Hydroxyphenoxy)octanoic acid], the melting point was 65 to 68 °C and 60 to 64 °C.
`CC(C(=O)[O-])c1ccc(NC(=O)c2ccccc2O)cc1.[Na+]` (stereo not drawn) [Compound 4 Sodium Salt, Sodium 2-(4-(N-salicyloyl)aminophenyl)propionate] yielded a melting point of 236 to 238 °C.
